Patent publication US9132203B2, “Complex and contrast agent for photoimaging using the same” (CANON KABUSHIKI KAISHA, priority 2010, dated 2015)

Assays:
[1] = Stability: absorption spectrum with time in PBS or PBS containing albumin at 37° C.; type: physicochemical
Procedure: To evaluate stability of the gelatin-ICG complex 1, the gelatin-ICG complex 1 was allowed to stand in PBS (phosphate buffered saline) or in PBS containing albumin (40 mg/mL) at 37° C., and the absorption spectrum was measured with time.

[2] = Absorption spectrum / absorbance at 780 nm with a spectrophotometer; type: physicochemical; conditions: ICG 0.5 mg/mL, gelatin 40 mg/mL; FIG. 2, FIG. 5
Procedure: The absorption spectrum of the obtained gelatin-ICG complex 1 was measured with a spectrophotometer (Beckman Coulter, Inc.).
The absorption spectrum and the absorbance at 780 nm of the gelatin-ICG complex 1 are illustrated in FIGS. 2 and 3, respectively. The absorption spectrum and the absorbance at 780 nm of ICG are also illustrated in FIGS. 2 and 3, respectively, as a comparative example.
The gelatin-ICG complex 1, 3, 4, 5, or 6 (final concentration, 40 or 100 mg/mL) and an ICG solution (final concentration, 0.5 mg/mL) were mixed to obtain a gelatin-ICG complex.
The complexes and the mixtures were prepared at final concentrations of ICG and a gelatin of 0.5 mg/mL and 40 mg/mL, respectively.
An ICG solution (final concentration, 0.1 mg/mL) and a gelatin (weight-average molecular weight, 10,000; final concentration, 100 m g/mL) were mixed to obtain a mixture (gelatin-ICG mixture) of a gelatin and ICG. The absorption spectrum of the obtained gelatin-ICG mixture was measured with a spectrophotometer. The results are illustrated in FIG. 19.

[3] = system: cancer-bearing mouse having a cancer site in the left hindlimb; test: In vivo kinetics by fluorescent imaging in cancer-bearing mouse; conditions: caudal vein dosing, ICG 0.5 mg/ml; FIG. 17A-C, 18A
Procedure: After the gelatin-ICG complex 1 was dosed from the caudal vein of a cancer-bearing mouse having a cancer site in the left hindlimb, images were taken over time with a fluorescent imaging apparatus (GE Healthcare), and in vivo kinetics of the gelatin-ICG complex 1 were evaluated.
Furthermore, as a comparative example, ICG alone at the same concentration (0.5 mg/ml) was intravenously dosed to a cancer-bearing mouse, and a similar evaluation was performed. Changes with time in the fluorescent imaging after dosing the gelatin-ICG complex 1 are illustrated in FIG. 17A. Changes with time after dosing ICG alone are illustrated in FIG. 17B. Changes with time in the fluorescence intensity in these cancer tissues are illustrated in FIG. 17C.
A gelatin-ICG complex 7 including a gelatin derivative 7 (DSPE 67% introduced) fluorescently labeled with Cy5.5 and ICG was prepared and dosed to a cancer-bearing mouse in the same manner as in Example 15 to evaluate in vivo kinetics of the gelatin derivative 7 itself. Changes with time in the fluorescent imaging are illustrated in FIG. 18A. Furthermore, ICG alone at the same concentration was dosed to a cancer-bearing mouse as a comparative example. Changes with time in the fluorescent imaging are illustrated in FIG. 18B.

In the case of `CC1(C)C(/C=C/C=C/C=C/C=C2/N(CCCCS(=O)(=O)[O-])c3ccc4ccccc4c3C2(C)C)=[N+](CCCCS(=O)(=O)[O-])c2ccc3ccccc3c21.[Na+]` [ICG, indocyanine green], the “changes with time in absorption spectrum / absorbance (λmax)” value ([1]; PBS containing albumin (40 mg/mL)) is reported as “stability was slightly inferior as compared with the stability of the gelatin-ICG complex 1”, the “changes with time in absorption spectrum / absorbance (λmax)” value ([1]; PBS without albumin) is reported as “changed greatly with time” and the “absorption spectrum (associate around 700 nm, monomer around 780 nm)” value [2] is reported as “absorbance on the long wavelength side was low”. The “distribution of ICG to cancer tissue, fluorescence with time” value [3] was “distributed to the cancer tissue temporarily after dosing ICG alone and eliminated with time”.
